Source: patent US20240226098A1, “COMPOUNDS AND METHODS FOR MODULATING SPLICING” (REMIX THERAPEUTICS INC., priority 2020, published 2024)

Legend:
Type in all cases: cell-based
[1] = test system: HTT mRNA, alternative junction (AJ); assay: Splicing assay (RT-qPCR): increase in HTT alternative junction (AJ) mRNA; settings: A673 or K562 cell line, 24 hours treatment, top dose 10 uM; concentration having 50% response in AJ increase
Method: (§1) Compounds described herein were used to modulate RNA transcript abundance in cells. The expression of a target mRNA was measured by detecting the formation of an exon-exon junction in the canonical transcript (CJ). A compound mediated exon-inclusion event was detected by observing an increase in formation of a new junction with an alternative exon (AJ). Real-time qPCR assays were used to detect these splicing switches and interrogate the potency of various compounds towards different target genes. A high-throughput real time quantitative PCR (RT-qPCR) assay was developed to measure these two isoforms of the mRNA (CJ and AJ) for an exemplary gene, HTT, together with a control housekeeping gene, GAPDH or GUSB or PPIA, used for normalization. Briefly, the A673 or K562 cell line was treated with various compounds described herein (e.g., compounds of Formula (I)). After treatment, the levels of the HTT mRNA targets were determined from each sample of cell lysate by cDNA synthesis followed by qPCR.
(§2) • Cells-to-CT 1-step kit: ThermoFisher A25602, Cells-to-CT lysis reagent: ThermoFisher 4391851C, TaqMan™ Fast Virus 1-Step Master Mix: ThermoFisher 4444436 • GAPDH: VIC-PL, ThermoFisher 4326317E (Assay: Hs99999905_ml)—used for K562/suspension cell lines • GUSB: VIC-PL, ThermoFisher 4326320E (Assay: Hs99999908_ml)—used for K562/suspension cell lines • PPIA: VIC-PL, ThermoFisher 4326316E (Assay: Hs99999904_ml)—used for A673/adherent cell lines
(§3) The A673 cell line was cultured in DMEM with 10% FBS. Cells were diluted with full growth media and plated in a 96-well plate (15,000 cells in 100 ul media per well). The plate was incubated at 37° C. with 5% CO2 for 24 hours to allow cells to adhere. An 11-point 3-fold serial dilution of the compounds was made in DMSO then diluted in media in an intermediate plate. Compounds were transferred from the intermediate plate to the cell plate with the top dose at a final concentration of 10 uM in the well. Final DMSO concentration was kept at or below 0.25%. The cell plate was returned to the incubator at 37° C. with 5% CO2 for an additional 24 hours.
(§4) The K562 cell line was cultured in IMDM with 10% FBS. For K562, cells were diluted with full growth media and plated in either a 96-well plate (50,000 cells in 50 uL media per well) or a 384-well plate (8,000-40,000 cells in 45 uL media per well). An 11-point 3-fold serial dilution of the compounds were made in DMSO then diluted in media in an intermediate plate. Compound was transferred from the intermediate plate to the cell plate with the top dose at a final concentration of 10 uM in the well. Final DMSO concentration was kept at or below 0.25%. Final volume was 100 uL for 96-well plate and 50 uL for 384-well plate. The cell plate was then placed in an incubator at 37° C. with 5% CO2 for 24 hours.
(§5) The cells were then gently washed with 50 uL-100 uL cold PBS before proceeding to addition of lysis buffer. 30 uL-50 uL of room temperature lysis buffer with DNAse I (and optionally RNAsin) was added to each well. Cells were shaken/mixed thoroughly at room temperature for 5-10 minutes for lysis to take place and then 3 uL-5 uL of room temperature stop solution was added and wells were shaken/mixed again. After 2-5 minutes, the cell lysate plate was transferred to ice for RT-qPCR reaction setup. The lysates could also be frozen at −80° C. for later use.
(§6) In some cases, a direct lysis buffer was used. An appropriate volume of 3× lysis buffer (10 mM Tris, 150 mM NaCl, 1.5%-2.5% Igepal and 0.1-1 U/uL RNAsin, pH 7.4) was directly added to either K562 or A673 cells in media and mixed by pipetting 3 times. The plates were then incubated at room temperature with shaking/rocking for 20-50 minutes to allow for lysis to take place. After this time, the cell lysate plate was transferred to ice to set up for the RT-qPCR reactions. The lysates could also be frozen at −80° C. for later use. […]

[2] = test system: HTT mRNA, canonical junction (CJ); assay: Splicing assay (RT-qPCR): decrease in HTT canonical junction (CJ) mRNA; settings: A673 or K562 cell line, 24 hours treatment, top dose 10 uM; concentration having 50% response in CJ decrease
Method: as §1, §2, §3, §4, §5, §6

HTT CJ mRNA = assay: Gene panel canonical junction qPCR assay: decrease in HTT CJ mRNA; settings: protocol as for Table 2, read-out: HTT (IC50, decrease in CJ mRNA levels)
Method: as §1, §3, §4, §5
(§7) In some cases, a direct lysis buffer was used. An appropriate volume of 3× lysis buffer (10 mM Tris, 150 mM NaCl, 1.5%-2.5% Igepal and 0.1-1 U/uL RNAsin, pH 7.4) was directly added to either K562 or A673 cells in media and mixed by pipetting 3 times. The plates were then incubated at room temperature with shaking/rocking for 20-50 minutes to allow for lysis to take place. After this time, the cell lysate plate was transferred to ice to set up for the RT-qPCR reactions. The lysates could also be frozen at −80° C. for later use.
(§8) To set up 10 uL RT-qPCR reactions, cell lysates were transferred to 384-well qPCR plates containing the master mix according to the table below. The plates were sealed, gently vortexed, and spun down before the run. The volumes were adjusted accordingly in some instances where the reaction was carried in 20 uL. The table below summarizes the components of the RT-qPCR reactions:
(§9) The RT-qPCR reaction was performed using a QuantStudio (ThermoFisher) under the following fast cycling conditions. […]

SMN2 CJ mRNA = assay: Gene panel canonical junction qPCR assay: decrease in SMN2 CJ mRNA; settings: protocol as for Table 2, read-out: SMN2 (IC50, decrease in CJ mRNA levels)
Method: as §1, §3, §4, §5, §7, §8, §9

Target C CJ mRNA = assay: Gene panel canonical junction qPCR assay: decrease in Target C CJ mRNA; settings: protocol as for Table 2, read-out: Target C (IC50, decrease in CJ mRNA levels)
Method: as §1, §3, §4, §5, §7, §8, §9

Compound | IC50 (HTT CJ mRNA) [nM] | IC50 (SMN2 CJ mRNA) [nM] | IC50 (Target C CJ mRNA) [nM] | AC50 [1] [nM] | AC50 [2] [nM]
Cn1cc2ccc(NC(=O)c3ccc(N4CCNCC4)c4ccnnc34)cc2n1 [Compound 115, N-(2-methylindazol-6-yl)-5-(piperazin-1-yl) cinnoline-8-carboxamide] | > 10000 | > 10000 | > 10000 | > 10000 | > 10000
Cc1nc2c(F)cc(NC(=O)c3ccc(N4CCNCC4)c4ccnnc34)cc2s1 [Compound 118, N-(4-fluoro-2-methyl-1,3-benzothiazol-6-yl)-5-(piperazin-1-yl) cinnoline-8-carboxamide] | 100 to 1000 | < 100 | 100 to 1000 | 100 to 1000 | 100 to 1000
Cc1cn2cc(NC(=O)c3ccc(N4CCNCC4)c4ccnnc34)c(C)cc2n1 [Compound 119, N-[2,7-dimethylimidazo[1,2-a]pyridin-6-yl]-5-(piperazin-1-yl) cinnoline-8-carboxamide] | 1000 to 10000 | < 100 | 1000 to 10000 | 1000 to 10000 | 1000 to 10000
Cc1cn2cc(NC(=O)c3ccc(N4CCNCC4)c4ccnnc34)ncc2n1 [Compound 120, N-[2-methylimidazo[1,2-a]pyrazin-6-yl]-5-(piperazin-1-yl) cinnoline-8-carboxamide] | > 10000 | < 100 | > 10000 | > 10000 | > 10000
Cc1cn2nc(NC(=O)c3ccc(N4CCNCC4)c4ccnnc34)cc2c(C)n1 [Compound 123, N-[4,6-dimethylpyrazolo[1,5-a]pyrazin-2-yl]-5-(piperazin-1-yl)cinnoline-8-carboxamide] | 1000 to 10000 | 1000 to 10000 | 1000 to 10000 | 1000 to 10000 | 1000 to 10000
O=C(Nc1cn[nH]c1)c1ccc(N2CCNCC2)c2ccnnc12 [Compound 126, 5-(piperazin-1-yl)-N-(1H-pyrazol-4-yl)cinnoline-8-carboxamide] | > 10000 | > 10000 | > 10000 | > 10000 | > 10000
Cc1cn2cc(NC(=O)c3ccc(N4CCN(C)CC4)c4ccnnc34)cc(F)c2n1 [Compound 127, N-[8-fluoro-2-methylimidazo[1,2-a]pyridin-6-yl]-5-(4-methylpiperazin-1-yl) cinnoline-8-carboxamide] | 1000 to 10000 | < 100 | 1000 to 10000 | 1000 to 10000 | 1000 to 10000
Cc1cn2cc(NC(=O)c3ccc(N4CC5(CN(C)C5)C4)c4ccnnc34)cc(F)c2n1 [Compound 132, N-[8-fluoro-2-methylimidazo[1,2-a]pyridin-6-yl]-5-[6-methyl-2,6-diazaspiro[3.3]heptan-2-yl]cinnoline-8-carboxamide] | 1000 to 10000 | < 100 | < 100 | 1000 to 10000 | 1000 to 10000
Cc1cn2cc(NC(=O)c3ccc(N4CCC(N(C)C)C4)c4ccnnc34)cc(F)c2n1 (stereo not shown) [Compound 134, 5-[3-(dimethylamino)pyrrolidin-1-yl]-N-[8-fluoro-2-methylimidazo[1,2-a]pyridin-6-yl]cinnoline-8-carboxamide] | 1000 to 10000 | < 100 | 1000 to 10000 | 1000 to 10000 | 1000 to 10000

Continued, in another order:

IC50 (HTT CJ mRNA) [nM] | IC50 (SMN2 CJ mRNA) [nM] | IC50 (Target C CJ mRNA) [nM] | Compound | AC50 [1] [nM] | AC50 [2] [nM]
> 10000 | > 10000 | > 10000 | Cn1cc2c(F)cc(NC(=O)c3ccc(N4CCNCC4)c4ccnnc34)cc2n1 [Compound 116, N-(4-fluoro-2-methylindazol-6-yl)-5-(piperazin-1-yl) cinnoline-8-carboxamide] | > 10000 | > 10000
1000 to 10000 | < 100 | 1000 to 10000 | Cc1nc2c(F)cc(NC(=O)c3ccc(N4CCNCC4)c4ccnnc34)cc2o1 [Compound 117, N-(4-fluoro-2-methyl-1,3-benzoxazol-6-yl)-5-(piperazin-1-yl) cinnoline-8-carboxamide] | 1000 to 10000 | 1000 to 10000
1000 to 10000 | 1000 to 10000 | 1000 to 10000 | Cc1cn2nc(NC(=O)c3ccc(N4CCNCC4)c4ccnnc34)nc2c(C)n1 [Compound 122] | 1000 to 10000 | 1000 to 10000
1000 to 10000 | < 100 | 1000 to 10000 | Cc1cn2cc(NC(=O)c3ccc(N4CCNCC4)c4ccnnc34)cc(Cl)c2n1 [Compound 124, N-[8-chloro-2-methylimidazo[1,2-a]pyridin-6-yl]-5-(piperazin-1-yl)cinnoline-8-carboxamide] | 1000 to 10000 | 1000 to 10000
1000 to 10000 | < 100 | 1000 to 10000 | Cc1cn2cc(NC(=O)c3ccc(N4CCNCC4)c4ccnnc34)cc(C)c2n1 [Compound 125, N-[2,8-dimethylimidazo[1,2-a]pyridin-6-yl]-5-(piperazin-1-yl)cinnoline-8-carboxamide] | 1000 to 10000 | 1000 to 10000
100 to 1000 | < 100 | 100 to 1000 | Cc1cn2cc(NC(=O)c3ccc(N4CCNC(C)C4)c4ccnnc34)cc(F)c2n1 (stereo not shown) [Compound 128, N-[8-fluoro-2-methylimidazo[1,2-a]pyridin-6-yl]-5-(3-methylpiperazin-1-yl) cinnoline-8-carboxamide] | 100 to 1000 | 100 to 1000
1000 to 10000 | < 100 | 100 to 1000 | Cc1cn2cc(NC(=O)c3ccc(N4CC5(CNC5)C4)c4ccnnc34)cc(F)c2n1 [Compound 131, 5-[2,6-diazaspiro[3.3]heptan-2-yl]-N-[8-fluoro-2-methylimidazo[1,2-a]pyridin-6-yl]cinnoline-8-carboxamide] | 1000 to 10000 | 1000 to 10000
1000 to 10000 | < 100 | 1000 to 10000 | Cc1cn2cc(NC(=O)c3ccc(N4CCC(N5CCCC5)C4)c4ccnnc34)cc(F)c2n1 (stereo not shown) [Compound 133, 5-[[1,3-bipyrrolidin]-1-yl]-N-[8-fluoro-2-methylimidazo[1,2-a]pyridin-6-yl]cinnoline-8-carboxamide] | 1000 to 10000 | 1000 to 10000
